According to publication PMC8500670, “A selective WDR5 degrader inhibits acute myeloid leukemia in patient-derived mouse models” (Science translational medicine, 2021):

How the values were obtained:
Test in all cases: biochemical
Parameters in all cases: kinase selectivity panel, activity as per cent of control, single concentration in duplicate
Settings in all cases: read-out: % of control remaining
[1] = target: T1, PKA(h) (Homo sapiens, UniProt P17612)
T1 construct: gene PRKACA
Procedure: (§1) We next assessed selectivity of MS67 against 22 protein methyltransferases (table S2) and a broad panel of common drug targets including 45 kinases (table S3) and 44 G protein–coupled receptors (GPCR), ion channels, and transporters (table S4). […] We subsequently determined that MS67 had moderate binding affinity (Ki = 1.0 ± 0.8 μM) to Sigma 2 receptor (fig. S10).

[2] = target: Plk1(h) (Homo sapiens, UniProt P53350)
Procedure: as §1

[3] = target: T2, GSK3β(h) (Homo sapiens, UniProt P49841)
T2 construct: gene GSK3B
Procedure: as §1

[4] = target: T3, TrkA(h) (Homo sapiens, UniProt P04629)
T3 construct: gene NTRK1
Procedure: as §1

[5] = target: T4, PKBα(h) (Homo sapiens, UniProt P31749)
T4 construct: gene AKT1
Procedure: as §1

[6] = target: MARK1(h) (Homo sapiens, UniProt Q9P0L2)
Procedure: as §1

[7] = target: T5, MAPKAP-K2(h) (Homo sapiens, UniProt P49137)
T5 construct: gene MAPKAPK2
Procedure: as §1

[8] = target: T6, Aurora-A(h) (Homo sapiens, UniProt O14965)
T6 construct: gene AURKA
Procedure: as §1

[9] = target: T7, SGK(h) (Homo sapiens, UniProt O00141)
T7 construct: gene SGK1
Procedure: as §1

[10] = target: CDK2/cyclinA(h) (Homo sapiens, UniProt P24941)
Procedure: as §1

[11] = target: T8, SAPK2a(h) (Homo sapiens, UniProt Q16539)
T8 construct: gene MAPK14
Procedure: as §1

[12] = target: KDR(h) (Homo sapiens, UniProt P35968)
Procedure: as §1

[13] = target: Met(h) (Homo sapiens, UniProt P08581)
Procedure: as §1

[14] = target: EphB4(h) (Homo sapiens, UniProt P54760)
Procedure: as §1

[15] = target: IRAK4(h) (Homo sapiens, UniProt Q9NWZ3)
Procedure: as §1

[16] = target: EphA3(h) (Homo sapiens, UniProt P29320)
Procedure: as §1

[17] = target: EGFR(h) (Homo sapiens, UniProt P00533)
Procedure: as §1

[18] = target: T9, SIK(h) (Homo sapiens, UniProt P57059)
T9 construct: gene SIK1
Procedure: as §1

[19] = target: FGFR3(h) (Homo sapiens, UniProt P22607)
Procedure: as §1

[20] = target: NEK2(h) (Homo sapiens, UniProt P51955)
Procedure: as §1

[21] = target: T10, Abl(h) (Homo sapiens, UniProt P00519)
T10 construct: gene ABL1
Procedure: as §1

[22] = target: PAK2(h) (Homo sapiens, UniProt Q13177)
Procedure: as §1

[23] = target: T11, IR(h) (Homo sapiens, UniProt P06213)
T11 construct: gene INSR
Procedure: as §1

[24] = target: T12, Mnk2(h) (Homo sapiens, UniProt Q9HBH9)
T12 construct: gene MKNK2
Procedure: as §1

[25] = target: T13, JNK1α1(h) (Homo sapiens, UniProt P45983)
T13 construct: gene MAPK8; isoform alpha1
Procedure: as §1

[26] = target: T14, c-RAF(h) (Homo sapiens, UniProt P04049)
T14 construct: gene RAF1
Procedure: as §1

Chain of IRAK4(h) (Q9NWZ3 whole entry): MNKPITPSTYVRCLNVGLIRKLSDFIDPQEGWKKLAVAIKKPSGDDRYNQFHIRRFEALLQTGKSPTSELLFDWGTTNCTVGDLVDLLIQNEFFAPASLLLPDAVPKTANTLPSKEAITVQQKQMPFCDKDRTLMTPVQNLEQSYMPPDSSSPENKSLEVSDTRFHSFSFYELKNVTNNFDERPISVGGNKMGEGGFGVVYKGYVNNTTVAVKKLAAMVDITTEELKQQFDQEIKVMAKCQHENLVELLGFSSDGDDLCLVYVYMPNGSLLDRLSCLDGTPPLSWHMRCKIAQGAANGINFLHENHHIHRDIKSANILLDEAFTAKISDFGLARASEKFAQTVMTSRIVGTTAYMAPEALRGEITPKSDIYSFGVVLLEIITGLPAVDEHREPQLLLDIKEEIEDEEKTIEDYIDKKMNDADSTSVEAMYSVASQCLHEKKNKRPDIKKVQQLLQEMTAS
Chain of EGFR(h) (P00533 whole entry): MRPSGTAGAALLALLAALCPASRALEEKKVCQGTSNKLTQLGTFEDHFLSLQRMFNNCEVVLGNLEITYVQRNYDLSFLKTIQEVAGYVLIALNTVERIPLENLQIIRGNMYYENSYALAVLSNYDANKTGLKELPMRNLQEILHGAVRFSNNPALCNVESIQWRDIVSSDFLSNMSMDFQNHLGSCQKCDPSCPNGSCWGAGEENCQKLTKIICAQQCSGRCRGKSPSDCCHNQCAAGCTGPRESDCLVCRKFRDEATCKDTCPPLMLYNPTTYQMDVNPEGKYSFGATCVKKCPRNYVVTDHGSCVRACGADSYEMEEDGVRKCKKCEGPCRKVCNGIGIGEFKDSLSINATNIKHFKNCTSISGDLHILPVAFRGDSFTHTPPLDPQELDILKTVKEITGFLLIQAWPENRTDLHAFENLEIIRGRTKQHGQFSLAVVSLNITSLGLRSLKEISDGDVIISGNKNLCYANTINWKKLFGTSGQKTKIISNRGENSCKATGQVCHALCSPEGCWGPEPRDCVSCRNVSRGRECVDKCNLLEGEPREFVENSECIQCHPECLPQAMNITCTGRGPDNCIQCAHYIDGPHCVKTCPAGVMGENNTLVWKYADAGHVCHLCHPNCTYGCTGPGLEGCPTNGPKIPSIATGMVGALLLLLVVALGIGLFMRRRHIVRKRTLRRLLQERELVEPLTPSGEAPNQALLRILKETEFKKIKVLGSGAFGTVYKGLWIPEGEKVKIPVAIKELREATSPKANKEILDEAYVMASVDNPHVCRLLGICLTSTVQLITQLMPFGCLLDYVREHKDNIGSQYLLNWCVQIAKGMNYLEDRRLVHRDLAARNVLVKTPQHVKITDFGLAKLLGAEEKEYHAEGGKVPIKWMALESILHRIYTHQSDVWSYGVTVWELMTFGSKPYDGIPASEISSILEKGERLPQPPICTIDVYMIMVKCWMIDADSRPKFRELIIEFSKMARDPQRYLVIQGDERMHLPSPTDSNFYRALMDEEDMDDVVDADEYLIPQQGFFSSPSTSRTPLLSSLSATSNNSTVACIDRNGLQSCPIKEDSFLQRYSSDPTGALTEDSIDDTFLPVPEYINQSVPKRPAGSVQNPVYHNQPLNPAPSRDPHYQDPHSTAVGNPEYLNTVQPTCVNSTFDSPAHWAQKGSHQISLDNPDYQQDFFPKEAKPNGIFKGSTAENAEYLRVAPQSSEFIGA
Chain of EphA3(h) (P29320 whole entry): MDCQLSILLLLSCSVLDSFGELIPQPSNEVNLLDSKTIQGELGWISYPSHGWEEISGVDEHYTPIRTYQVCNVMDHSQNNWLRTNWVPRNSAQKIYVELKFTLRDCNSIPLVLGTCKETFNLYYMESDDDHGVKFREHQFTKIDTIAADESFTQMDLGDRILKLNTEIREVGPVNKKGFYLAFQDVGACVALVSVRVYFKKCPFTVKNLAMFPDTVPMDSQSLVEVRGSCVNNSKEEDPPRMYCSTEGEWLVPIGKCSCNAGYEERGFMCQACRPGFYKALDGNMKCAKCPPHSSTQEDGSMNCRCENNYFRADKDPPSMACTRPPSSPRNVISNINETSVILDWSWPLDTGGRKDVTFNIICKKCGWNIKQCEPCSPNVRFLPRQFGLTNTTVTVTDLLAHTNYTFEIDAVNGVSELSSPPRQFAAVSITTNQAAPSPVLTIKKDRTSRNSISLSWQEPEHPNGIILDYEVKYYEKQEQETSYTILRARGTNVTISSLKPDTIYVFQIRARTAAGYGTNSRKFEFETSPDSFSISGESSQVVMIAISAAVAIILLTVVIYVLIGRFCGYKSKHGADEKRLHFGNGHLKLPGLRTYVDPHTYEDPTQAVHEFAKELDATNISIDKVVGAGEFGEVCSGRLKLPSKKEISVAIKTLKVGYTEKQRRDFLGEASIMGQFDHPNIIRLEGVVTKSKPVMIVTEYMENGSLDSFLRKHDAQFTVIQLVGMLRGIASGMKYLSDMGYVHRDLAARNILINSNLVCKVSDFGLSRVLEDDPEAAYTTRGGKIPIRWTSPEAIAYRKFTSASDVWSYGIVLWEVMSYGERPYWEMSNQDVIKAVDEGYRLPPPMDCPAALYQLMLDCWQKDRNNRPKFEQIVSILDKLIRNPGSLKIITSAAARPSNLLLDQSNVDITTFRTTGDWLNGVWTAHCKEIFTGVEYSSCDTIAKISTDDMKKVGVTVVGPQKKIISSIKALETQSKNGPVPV
T6 sequence (O14965 whole entry): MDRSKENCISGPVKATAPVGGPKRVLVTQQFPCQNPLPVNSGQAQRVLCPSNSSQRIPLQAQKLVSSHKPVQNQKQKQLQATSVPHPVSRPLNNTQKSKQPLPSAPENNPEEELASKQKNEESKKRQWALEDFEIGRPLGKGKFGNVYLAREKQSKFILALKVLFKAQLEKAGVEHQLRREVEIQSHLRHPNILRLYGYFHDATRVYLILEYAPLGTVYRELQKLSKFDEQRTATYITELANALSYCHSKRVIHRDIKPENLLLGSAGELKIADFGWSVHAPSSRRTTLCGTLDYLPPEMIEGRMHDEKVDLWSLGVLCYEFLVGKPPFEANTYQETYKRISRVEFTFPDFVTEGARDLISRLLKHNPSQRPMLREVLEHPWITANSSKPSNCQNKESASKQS
Chain of MARK1(h) (Q9P0L2 whole entry): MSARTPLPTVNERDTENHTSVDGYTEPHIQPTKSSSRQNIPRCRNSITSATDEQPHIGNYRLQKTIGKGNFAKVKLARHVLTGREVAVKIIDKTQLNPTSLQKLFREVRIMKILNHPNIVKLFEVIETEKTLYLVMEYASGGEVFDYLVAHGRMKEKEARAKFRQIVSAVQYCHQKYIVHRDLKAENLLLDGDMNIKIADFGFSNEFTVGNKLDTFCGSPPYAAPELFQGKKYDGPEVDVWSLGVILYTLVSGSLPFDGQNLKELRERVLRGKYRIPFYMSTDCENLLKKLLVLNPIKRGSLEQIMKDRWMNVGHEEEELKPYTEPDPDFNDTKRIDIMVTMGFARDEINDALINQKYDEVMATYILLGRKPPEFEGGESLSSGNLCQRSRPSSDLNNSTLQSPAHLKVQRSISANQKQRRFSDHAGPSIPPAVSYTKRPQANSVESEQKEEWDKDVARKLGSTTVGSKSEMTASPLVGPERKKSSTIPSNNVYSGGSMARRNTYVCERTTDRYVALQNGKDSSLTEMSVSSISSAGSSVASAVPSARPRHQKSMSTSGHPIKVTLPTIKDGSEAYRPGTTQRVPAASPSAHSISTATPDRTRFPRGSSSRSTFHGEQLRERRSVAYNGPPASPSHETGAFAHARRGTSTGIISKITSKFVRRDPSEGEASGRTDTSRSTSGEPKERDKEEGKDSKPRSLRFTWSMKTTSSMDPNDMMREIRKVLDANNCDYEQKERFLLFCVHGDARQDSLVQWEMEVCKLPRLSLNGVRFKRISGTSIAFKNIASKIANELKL
Chain of Plk1(h) (P53350 whole entry): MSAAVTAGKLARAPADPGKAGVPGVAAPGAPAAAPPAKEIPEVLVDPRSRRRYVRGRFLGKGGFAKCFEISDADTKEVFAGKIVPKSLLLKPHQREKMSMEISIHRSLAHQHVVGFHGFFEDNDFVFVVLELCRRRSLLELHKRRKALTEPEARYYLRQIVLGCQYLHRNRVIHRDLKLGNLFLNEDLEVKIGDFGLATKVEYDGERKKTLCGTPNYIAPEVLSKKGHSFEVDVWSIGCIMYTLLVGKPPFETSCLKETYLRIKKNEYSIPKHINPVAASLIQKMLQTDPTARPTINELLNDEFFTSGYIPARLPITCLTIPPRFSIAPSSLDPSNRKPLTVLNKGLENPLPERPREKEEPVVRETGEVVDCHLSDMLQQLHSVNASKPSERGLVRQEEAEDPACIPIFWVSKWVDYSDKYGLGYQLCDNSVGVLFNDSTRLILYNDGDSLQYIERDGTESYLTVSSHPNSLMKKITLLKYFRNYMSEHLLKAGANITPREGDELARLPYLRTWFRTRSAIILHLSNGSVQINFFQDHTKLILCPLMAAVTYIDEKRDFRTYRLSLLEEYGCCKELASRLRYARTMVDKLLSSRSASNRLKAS
T7 sequence (O00141 whole entry): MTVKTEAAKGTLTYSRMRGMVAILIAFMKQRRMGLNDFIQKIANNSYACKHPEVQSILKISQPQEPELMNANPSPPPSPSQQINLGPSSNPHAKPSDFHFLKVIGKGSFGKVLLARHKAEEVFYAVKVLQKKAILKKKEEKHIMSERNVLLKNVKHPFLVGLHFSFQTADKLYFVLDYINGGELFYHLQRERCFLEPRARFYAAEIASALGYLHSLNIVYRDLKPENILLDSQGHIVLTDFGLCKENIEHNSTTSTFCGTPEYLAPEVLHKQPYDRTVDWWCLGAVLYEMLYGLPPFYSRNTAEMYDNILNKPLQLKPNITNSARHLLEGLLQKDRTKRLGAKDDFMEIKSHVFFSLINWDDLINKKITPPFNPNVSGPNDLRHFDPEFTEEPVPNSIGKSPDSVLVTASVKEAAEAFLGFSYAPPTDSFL

Cc1ncsc1-c1ccc([C@H](C)NC(=O)[C@@H]2C[C@@H](O)CN2C(=O)[C@@H](NC(=O)CNC(=O)c2ccc(F)c(-c3ccc(N4C[C@@H](C)N(C)[C@@H](C)C4)c(NC(=O)c4c[nH]c(=O)cc4C(F)(F)F)c3)c2)C(C)(C)C)cc1 [MS67]
remaining activity at 1 µM [1]: 107%
remaining activity at 1 µM [2]: 87%
remaining activity at 1 µM [3]: 110%
remaining activity at 1 µM [4]: 94%
remaining activity at 1 µM [5]: 93%
remaining activity at 1 µM [6]: 100%
remaining activity at 1 µM [7]: 104%
remaining activity at 1 µM [8]: 108%
remaining activity at 1 µM [9]: 113%
remaining activity at 1 µM [10]: 91%
remaining activity at 1 µM [11]: 99%
remaining activity at 1 µM [12]: 110%
remaining activity at 1 µM [13]: 88%
remaining activity at 1 µM [14]: 150%
remaining activity at 1 µM [15]: 109%
remaining activity at 1 µM [16]: 125%
remaining activity at 1 µM [17]: 101%
remaining activity at 1 µM [18]: 84%
remaining activity at 1 µM [19]: 104%
remaining activity at 1 µM [20]: 111%
remaining activity at 1 µM [21]: 99%
remaining activity at 1 µM [22]: 89%
remaining activity at 1 µM [23]: 87%
remaining activity at 1 µM [24]: 125%
remaining activity at 1 µM [25]: 104%
remaining activity at 1 µM [26]: 87%
